In patent US9011935B2, “Therapeutic composition and use” (priority 2006, dated 2015):

Columns and labels:
[1] = system: Methicillin Resistant Staphylococcus Aureus (MRSA); assay: Agar plate antibacterial test (Example 1); conditions: liquid added to hollow circle of seeded agar plate, FIG. 1
Protocol: (§1) A 1M solution of potassium nitrite was prepared by diluting 8.51 g of KNO2 in 100 ml of distilled water. 17.612 g of ascorbic acid was diluted in 100 ml of distilled water to form a 1M solution. The three stock solutions were prepared a few minutes prior to the experiments.
(§2) A volume of NaNO2 and an equal volume of KNO2 were mixed with twice the volume of ascorbic acid in a sterile container to produce an “oxides of nitrogen” containing solution. A reaction between the nitrites and the acid occurred instantly. The gas produced was released and 2 ml of the premixed liquid (0.25M) was added to 20 ml of distilled water to give a final concentration of the solution of 1.25 mM.
(§3) Separate samples of NaNO2, KNO2 and ascorbic acid were also prepared as described above.
(§4) An overnight culture of bacteria was prepared by inoculating 20 ml of LB (Luria-Bertani 10 g Bacto-tryptone, +5 g Bacto-yeast extract, +10 g sodium chloride per liter, at pH 7.5) broth with 2 to 3 colonies, and incubating at 37° C. overnight. Broth cultures containing approximately 109 organisms were produced. Bacteria were diluted 1:1000 using phosphate buffer saline (PBS) and 100 μl of diluted broth cultures were seeded on the Brain-Heart agar plates. Prior to seeding bacteria on to the surface of the agar plates a piece of agar (approximately 70 mm in diameter) from the centre of the plates was removed. […]

[2] = system: Candida Albicans (CA); assay: Agar plate antibacterial test (Example 2); conditions: liquid added to hollow circle of seeded agar plate, FIG. 2
Protocol: as §1, §2, §3, §4

[3] = system: Pseudomonas Aeruginosa (PS); assay: Agar plate antibacterial test (Example 3); conditions: liquid added to hollow circle of seeded agar plate, FIG. 3
Protocol: as §1, §2, §3, §4

[4] = system: Coagulase negative Staphylococcus (CNS); assay: Agar plate antibacterial test (Example 4); conditions: liquid added to hollow circle of seeded agar plate, FIG. 4
Protocol: as §1, §2, §3, §4

[5] = system: Methicillin Resistant Staphylococcus Aureus (MRSA); assay: Agar plate exposed to gaseous NO in a closed box (Example 5); assay type: cell-based; conditions: overnight incubation in closed box with NO gas, FIG. 5
Protocol: A Methicillin Resistant Staphylococcus Aureus (MRSA) culture was produced in the same manner as for Examples 1 to 4. The agar plate was placed in a polystyrene box. Gaseous NO was produced by reacting 10 ml 1M ascorbic acid with 5 ml 1M NaNO2 and 5 ml 1M KNO2 in the box and the lid of the box replaced immediately, followed by overnight incubation of the culture.

[6] = pH change on addition of L-ascorbic acid to sodium nitrite (Examples 16 and 17); assay type: physicochemical; conditions: 1M sodium nitrite in normal saline, before acid addition
Protocol: The pH change was measured when L-ascorbic acid was added to sodium nitrite incrementally and as a single addition.
Analytical grade (>99% purity) sodium nitrite (NaNO2) and L-ascorbic acid (C6H8O6) from Sigma-Aldrich, UK were used. Saline (0.9% wv of NaCl) was from Baxter Healthcare-UK was also used.
Normal saline was used as solvent in the preparation of the solutions of sodium nitrite and ascorbic acid. All solutions were prepared at room temperature (22-25° C.) in lots of 25 or 50 ml and were used within 10-20 days. Stock solutions were kept in airtight vessels away from light.
All pH measurements of the solutions were carried out with a Wissenschaftlich-Technische Werkstätten (WTW) pH meter, model pH340i along with a SenTix 20 pH combination electrode incorporating a thermocouple. The electrode was calibrated with freshly prepared buffer calibrating solutions (pH 7.00 and 4.00±0.002). Calibrating solutions were prepared from ALDRICH Tri-check buffer capsules, Aldrich, USA.
The pH of the solutions was measured with the addition of a standard magnetic stir bar operating at 60 rpm. At least 12 ml of solutions were used to ensure that the electrode was completely immersed. 1M solutions of sodium nitrite and ascorbic acid were prepared using normal saline as solvent. In Example 16, 1 ml of acid was added to the nitrite every 10 minutes. […]

O=C1O[C@H]([C@@H](O)CO)C(O)=C1O [A, ascorbic acid]
bacterial colonies on agar plate [1]: large amount of bacteria | bacterial colonies on agar plate [2]: large amount of bacteria | bacterial colonies on agar plate [3]: large amount of bacteria | bacterial colonies on agar plate [4]: large amount of bacteria

[N]=O [Gaseous NO, nitric oxide]
visible bacterial cultures on agar plate [5]: no remaining visible bacterial cultures

O=NO [sodium nitrite solution, sodium nitrite]
initial pH [6]: approximately 7.35
